# Data: ChEMBL document CHEMBL3885861, “Open TG-GATES”
# Species on record: Rattus norvegicus
# Assay: Open TG-GATES - Regimen: Daily Repeat
# Format: toxicity, organism-based, Sprague-Dawley
# Parameters: regimen Daily Repeat, gender Male, age 6 weeks
# Conditions: in vivo, po, 100 mg/kg, route gavage, dose level Middle; for APTT / Bas / Eos / Fbg / Hb / Ht / Lym / MCH / MCHC / MCV / Mono / Neu / PT / Plat / RBC / Ret / WBC: tissue Blood; for KIDNEY_L / KIDNEY_R / KIDNEY_TOTAL: tissue Kidney; for LIVER: tissue Liver; for A/G / ALP / ALT / AST / BUN / CRE / Ca / Cl / DBIL / GLC / IP / K / LDH / Na / PL / RALB / TBIL / TC / TG / TP / gamma-GTP: tissue Plasma
structure (smiles),measurement,setting,value
O=C(O)COc1nn(Cc2ccccc2)c2ccccc12 [BENDAZAC],TERMINAL_BW,"72 h, time 3 day",231.3 g
same,APTT,"72 h, time 3 day",17.2 s
same,Bas,"72 h, time 3 day",0%
same,Eos,"72 h, time 3 day",1%
same,Fbg,"72 h, time 3 day",205 mg/dL
same,Hb,"72 h, time 3 day",13.5 g/dL
same,Ht,"72 h, time 3 day",40.4%
same,Lym,"72 h, time 3 day",80.6%
same,MCH,"72 h, time 3 day",21.6 pg
same,MCHC,"72 h, time 3 day",33.4%
same,MCV,"72 h, time 3 day",64.8 fL
same,Mono,"72 h, time 3 day",6.8%
same,Neu,"72 h, time 3 day",11.8%
same,PT,"72 h, time 3 day",11.8 s
same,Plat,"72 h, time 3 day",116.4 x10_4/uL
same,RBC,"72 h, time 3 day",624.4 x10_4/ul
same,Ret,"72 h, time 3 day",7.1%
same,WBC,"72 h, time 3 day",112.6 x10_2/uL
same,KIDNEY_L,"72 h, time 3 day",1 g
same,KIDNEY_R,"72 h, time 3 day",1.1 g
same,KIDNEY_TOTAL,"72 h, time 3 day",2.1 g
same,LIVER,"72 h, time 3 day",11.7 g
same,A/G,"72 h, time 3 day",2
same,ALP,"72 h, time 3 day",987.2 IU/L
same,ALT,"72 h, time 3 day",39.8 IU/L
same,AST,"72 h, time 3 day",65.6 IU/L
same,BUN,"72 h, time 3 day",15.8 mg/dL
same,CRE,"72 h, time 3 day",0.6 mg/dL
same,Ca,"72 h, time 3 day",10.8 mg/dL
same,Cl,"72 h, time 3 day",104.2 meq/L
same,DBIL,"72 h, time 3 day",0.048 mg/dL
same,GLC,"72 h, time 3 day",199.8 mg/dL
same,IP,"72 h, time 3 day",7 mg/dL
same,K,"72 h, time 3 day",4.5 meq/L
same,LDH,"72 h, time 3 day",107.6 IU/L
same,Na,"72 h, time 3 day",140 meq/L
same,PL,"72 h, time 3 day",153.6 mg/dL
same,RALB,"72 h, time 3 day",3.8 g/dL
same,TBIL,"72 h, time 3 day",0.4 mg/dL
same,TC,"72 h, time 3 day",82 mg/dL
same,TG,"72 h, time 3 day",79.8 mg/dL
same,TP,"72 h, time 3 day",5.7 g/dL
same,gamma-GTP,"72 h, time 3 day",1 IU/L
same,TERMINAL_BW,"[…], time 7 day",259.9 g
same,TERMINAL_BW,"[…], time 14 day",309.7 g
same,TERMINAL_BW,"[…], time 28 day",386.1 g
same,APTT,"[…], time 7 day",17.3 s
same,Bas,"[…], time 7 day",0%
same,Eos,"[…], time 7 day",1.2%
same,Fbg,"[…], time 7 day",229.2 mg/dL
same,Hb,"[…], time 7 day",14.1 g/dL
same,Ht,"[…], time 7 day",41%
same,Lym,"[…], time 7 day",76.8%
same,MCH,"[…], time 7 day",21.7 pg
same,MCHC,"[…], time 7 day",34.3%
same,MCV,"[…], time 7 day",63.2 fL
same,Mono,"[…], time 7 day",8.4%
same,Neu,"[…], time 7 day",14%
same,PT,"[…], time 7 day",11.7 s
same,Plat,"[…], time 7 day",139.2 x10_4/uL
same,RBC,"[…], time 7 day",649.8 x10_4/ul
same,Ret,"[…], time 7 day",6.8%
same,WBC,"[…], time 7 day",114.5 x10_2/uL
same,APTT,"[…], time 14 day",17.7 s
same,Bas,"[…], time 14 day",0%
same,Eos,"[…], time 14 day",1%
same,Fbg,"[…], time 14 day",213.4 mg/dL
same,Hb,"[…], time 14 day",14.6 g/dL
same,Ht,"[…], time 14 day",43.2%
same,Lym,"[…], time 14 day",83.2%
same,MCH,"[…], time 14 day",20.5 pg
same,MCHC,"[…], time 14 day",33.9%
same,MCV,"[…], time 14 day",60.4 fL
same,Mono,"[…], time 14 day",4.8%
same,Neu,"[…], time 14 day",11.4%
same,PT,"[…], time 14 day",11.4 s
same,Plat,"[…], time 14 day",126.3 x10_4/uL
same,RBC,"[…], time 14 day",715 x10_4/ul
same,Ret,"[…], time 14 day",2.9%
same,WBC,"[…], time 14 day",124.2 x10_2/uL
same,APTT,"[…], time 28 day",18.1 s
same,Bas,"[…], time 28 day",0%
same,Eos,"[…], time 28 day",1.2%
same,Fbg,"[…], time 28 day",216.6 mg/dL
same,Hb,"[…], time 28 day",15.6 g/dL
same,Ht,"[…], time 28 day",45.8%
same,Lym,"[…], time 28 day",87%
same,MCH,"[…], time 28 day",19.5 pg
same,MCHC,"[…], time 28 day",34%
same,MCV,"[…], time 28 day",57.2 fL
same,Mono,"[…], time 28 day",2.2%
same,Neu,"[…], time 28 day",9%
same,PT,"[…], time 28 day",12 s
same,Plat,"[…], time 28 day",113.7 x10_4/uL
same,RBC,"[…], time 28 day",801.2 x10_4/ul
same,Ret,"[…], time 28 day",2.2%
same,WBC,"[…], time 28 day",131.2 x10_2/uL
same,KIDNEY_L,"[…], time 7 day",1.2 g
same,KIDNEY_R,"[…], time 7 day",1.1 g
same,KIDNEY_TOTAL,"[…], time 7 day",2.3 g
same,KIDNEY_L,"[…], time 14 day",1.2 g
same,KIDNEY_R,"[…], time 14 day",1.3 g
same,KIDNEY_TOTAL,"[…], time 14 day",2.5 g
same,KIDNEY_L,"[…], time 28 day",1.4 g
same,KIDNEY_R,"[…], time 28 day",1.4 g
same,KIDNEY_TOTAL,"[…], time 28 day",2.8 g
same,LIVER,"[…], time 7 day",13.1 g
same,LIVER,"[…], time 14 day",14.8 g
same,LIVER,"[…], time 28 day",17.3 g
same,A/G,"[…], time 7 day",2
same,ALP,"[…], time 7 day",927.8 IU/L
same,ALT,"[…], time 7 day",31.6 IU/L
same,AST,"[…], time 7 day",55.8 IU/L
same,BUN,"[…], time 7 day",18.8 mg/dL
same,CRE,"[…], time 7 day",0.5 mg/dL
same,Ca,"[…], time 7 day",11.1 mg/dL
same,Cl,"[…], time 7 day",105.6 meq/L
same,DBIL,"[…], time 7 day",0.014 mg/dL
same,GLC,"[…], time 7 day",206 mg/dL
same,IP,"[…], time 7 day",6.6 mg/dL
same,K,"[…], time 7 day",4.4 meq/L
same,LDH,"[…], time 7 day",110.8 IU/L
same,Na,"[…], time 7 day",140.6 meq/L
same,PL,"[…], time 7 day",141 mg/dL
same,RALB,"[…], time 7 day",3.8 g/dL
same,TBIL,"[…], time 7 day",0.4 mg/dL
same,TC,"[…], time 7 day",71.8 mg/dL
same,TG,"[…], time 7 day",108.6 mg/dL
same,TP,"[…], time 7 day",5.7 g/dL
same,gamma-GTP,"[…], time 7 day",1 IU/L
same,A/G,"[…], time 14 day",1.6
same,ALP,"[…], time 14 day",909.2 IU/L
same,ALT,"[…], time 14 day",32.2 IU/L
same,AST,"[…], time 14 day",63 IU/L
same,BUN,"[…], time 14 day",18.8 mg/dL
same,CRE,"[…], time 14 day",0.6 mg/dL
same,Ca,"[…], time 14 day",10.3 mg/dL
same,Cl,"[…], time 14 day",106 meq/L
same,DBIL,"[…], time 14 day",0.04 mg/dL
same,GLC,"[…], time 14 day",198.6 mg/dL
same,IP,"[…], time 14 day",6.5 mg/dL
same,K,"[…], time 14 day",4.5 meq/L
same,LDH,"[…], time 14 day",108 IU/L
same,Na,"[…], time 14 day",140.8 meq/L
same,PL,"[…], time 14 day",145.6 mg/dL
same,RALB,"[…], time 14 day",3.8 g/dL
same,TBIL,"[…], time 14 day",0.4 mg/dL
same,TC,"[…], time 14 day",68 mg/dL
same,TG,"[…], time 14 day",125.4 mg/dL
same,TP,"[…], time 14 day",6.2 g/dL
same,gamma-GTP,"[…], time 14 day",1.8 IU/L
same,A/G,"[…], time 28 day",1.4
same,ALP,"[…], time 28 day",669.2 IU/L
same,ALT,"[…], time 28 day",31.4 IU/L
same,AST,"[…], time 28 day",62.4 IU/L
same,BUN,"[…], time 28 day",20 mg/dL
same,CRE,"[…], time 28 day",0.6 mg/dL
same,Ca,"[…], time 28 day",9.7 mg/dL
same,Cl,"[…], time 28 day",103.8 meq/L
same,DBIL,"[…], time 28 day",0.02 mg/dL
same,GLC,"[…], time 28 day",189.2 mg/dL
same,IP,"[…], time 28 day",5.7 mg/dL
same,K,"[…], time 28 day",4.4 meq/L
same,LDH,"[…], time 28 day",102.8 IU/L
same,Na,"[…], time 28 day",139.6 meq/L
same,PL,"[…], time 28 day",136.8 mg/dL
same,RALB,"[…], time 28 day",3.7 g/dL
same,TBIL,"[…], time 28 day",0.4 mg/dL
same,TC,"[…], time 28 day",61.4 mg/dL
same,TG,"[…], time 28 day",154.4 mg/dL
same,TP,"[…], time 28 day",6.2 g/dL
same,gamma-GTP,"[…], time 28 day",1.2 IU/L
